According to PMC9232612, “A phase 1b randomised controlled trial of a glucagon-like peptide-1 and glucagon receptor dual agonist IBI362 (LY3305677) in Chinese patients with type 2 diabetes” (Nature Communications, 2022):
“And” between values parts separate entries of the source, which are not always exact repeats. Equal entries are not always repeated.

How the values were obtained:
Assay type in all cases: in vivo, human
[1] = test system: Chinese patients with T2D; test: Homeostatic model assessment of insulin resistance (HOMA-IR); details: 1.5 mg once weekly, n=6
From the text: (§1) Exploratory outcomes included change from baseline in body weight, waist circumference, body-mass index (BMI) and change in homeostatic model assessment of β-cell function (HOMA-β) and insulin resistance (HOMA-IR).

[2] = test system: Chinese patients with T2D; test: Mixed-meal tolerance test (MTT): insulin; details: 1.5 mg once weekly, n=6
Experimental: (§2) HbA1c (2200101, Bio-Rad, USA), blood glucose (05168791190, Roche Diagnostics, Germany), insulin (12017547122, Roche Diagnostics, Germany), C peptide (03184897190, Roche Diagnostics, Germany), total GLP-1 (GLP-1 [7–36] amide and its metabolite, GLP-1 [9–36] amide, 10-1278-01, Mercodia AB, Sweden) and OXM (AL-139, AnshLabs, USA) tests were performed according to the manufactures’ instruction manuals in a central laboratory (KingMed Diagnostics, Guangzhou, China). HbA1c was measured using a Bio-rad D-100 Haemoglobin Testing System (Bio-rad). Blood glucose was measured using a Roche Cobas c702 analyser (Roche Diagnostics). Insulin and C peptide were measured using a Roche […] analyser (Roche Diagnostics). GLP-1 and OXM were measured using a Tecan Infinite M Plex microplate reader (TECAN).
Standard non-compartmental pharmacokinetics methods were used to analyze IBI362 plasma concentration data using Pkanalix 2020R1 (Lixoft, Antony, France). Secondary efficacy outcomes included change from baseline to week 12 in HbA1c, fasting plasma glucose (FPG), fasting insulin levels, change from baseline to week 12 in post-mixed-meal tolerance test (post-MTT) glucose, insulin, C peptide, GLP-1 and OXM levels, as well as seven-point self-measured blood glucose (SMBG) profile. […]
(§3) 3. Standard meal test (MTT) collection measures included: insulin, C-peptide, plasma glucose, glucagon, endogenous OXM, and endogenous GLP-1. The sampling points include: fasting, 30 min, 1h, 2h, 3h and 4h.
(§4) A total of 9 mL blood will be collected from each blood collection point. See the manual of the central laboratory for the detailed operation process. Fasting state refers to fasting for 10 hours. [ The standard meal is
(§5) instant noodles. The master Kang roast beef noodles (bucket noodles) purchased by the sponsor in a unified manner are removed from the oil bag. The noodles are soaked in boiled water and then removed. The seasoning
(§6) bag is added and mixed well. The time is counted from the first bite of eating. The noodles are eaten within 10 minutes, and 200 mL of water is drunk; or the instant noodles are directly opened with 200 mL of boiled
water to ensure that the noodles are eaten and the water or soup is drunk]. Visit days when MTT test is performed: 1 day prior to Cycle 1 administration, Day 80 (D80). […]
(§7) ● Test by central laboratory

[3] = test system: Chinese patients with T2D; test: Fasting plasma glucose (FPG); details: 1.5 mg once weekly, MMRM
Experimental: as §2
(§8) Standard non-compartmental pharmacokinetics methods were used to analyze IBI362 plasma concentration data using Pkanalix 2020R1 (Lixoft, Antony, France). Secondary efficacy outcomes included change from baseline to week 12 in HbA1c, fasting plasma glucose (FPG), fasting insulin levels, change from baseline to week 12 in post-mixed-meal tolerance test (post-MTT) glucose, insulin, C peptide, GLP-1 and OXM levels, as well as seven-point self-measured blood glucose (SMBG) profile.
(§9) The analyses for change from baseline in HbA1c, FPG, post-MTT glucose AUC0–4 h and body weight were performed using the mixed-effect model for repeated measures (MMRM) with least-squares means and standard error provided. The MMRM included the corresponding baseline value, treatment, visit and treatment-by-visit as fixed effects and patient as a random effect. Mean change or mean percent change from baseline were analysed using a restricted maximum likelihood (REML)‐based repeated measures approach in combination with the Newton Raphson Algorithm. The fix effect of visit was fitted as a repeated effect and an unstructured covariance matrix was used. In case of non-converge, matrix like Variance Components and Compound Symmetry will be tested in a subsequent order until model‐convergence is achieved. The Kenward-Roger degree of freedom was used in estimating fixed effects. No missing data imputation was conducted. For HbA1c, FPG and body weight, point estimate of treatment difference versus placebo and 90% CI were provided for each IBI362 dose group and the dulaglutide group, with nominal p values.

[4] = test system: Chinese patients with T2D; test: Mixed-meal tolerance test (MTT): C peptide; details: 1.5 mg once weekly, n=6
Experimental: as §2, §8
IBI362 Innovent Biologics (Suzhou) Co., Ltd. CIBI362A101
as §3, §4, §5, §6
water to ensure that the noodles are eaten and the water or soup is drunk]. Visit days when MTT test is performed: 1 day prior to Cycle 1 administration, Day 80 (D80).
4. If the patient experiences drug-related adverse events during dose escalation and meets the protocol-specified tolerance criteria, dose adjustment is required at the investigator's discretion, and a standard meal test
should be performed 48 hours after the first dose after dose adjustment.
as §7

Body weight = details: 1.5 mg once weekly; for Percent change from baseline in body weight, LS mean / Percent change from baseline in body weight, LS mean (SE): n=6
Experimental: as §1, §9

Waist circumference = details: 1.5 mg once weekly, n=6
From the text: as §1

Dulaglutide: open-label active reference, subcutaneously once weekly at a fixed dose of 1.5 mg [reference compound]
Change from baseline to week 12 in HOMA-IR, mean [1]: -1.5
Change from baseline to week 12 in HOMA-IR, individual ([1]; single patients): 0.346 and 1.1 and -0.8 and -3.0 and -3.5
Insulin during MTT, mean ([2]; week 12, 0 min): 13.40 μU/mL
Insulin during MTT, mean ([2]; week 12, 30 min): 30.21 μU/mL
Insulin during MTT, mean ([2]; week 12, 60 min): 53.77 μU/mL
Insulin during MTT, mean ([2]; week 12, 120 min): 63.25 μU/mL
Insulin during MTT, mean ([2]; week 12, 180 min): 30.85 μU/mL
Insulin during MTT, mean ([2]; week 12, 240 min): 21.56 μU/mL
Change from baseline in fasting plasma glucose, LS mean ([3]; week 4, n=6): -3.19 mmol/L
Change from baseline in fasting plasma glucose, LS mean ([3]; week 8, n=6): -3.36 mmol/L
Change from baseline in fasting plasma glucose, LS mean (SE) ([3]; week 12, n=6): -3.85 mmol/L
Fasting plasma glucose: ETD versus placebo, LS mean (90% CI) ([3]; week 12): -1.32 mmol/L
C peptide during MTT, mean ([4]; week 12, 0 min): 3.04 ng/mL
C peptide during MTT, mean ([4]; week 12, 30 min): 4.18 ng/mL
C peptide during MTT, mean ([4]; week 12, 60 min): 6.16 ng/mL
C peptide during MTT, mean ([4]; week 12, 120 min): 8.34 ng/mL
C peptide during MTT, mean ([4]; week 12, 180 min): 5.85 ng/mL
C peptide during MTT, mean ([4]; week 12, 240 min): 4.53 ng/mL
Percent change from baseline to week 12 in body weight, single patients (Body weight; each line a single patient): 1.8% and -0.6% and 0.5% and 1.3% and -0.126% and -7.2%
Percent change from baseline in body weight, LS mean (Body weight; week 4, MMRM): -0.2%
Percent change from baseline in body weight, LS mean (Body weight; week 8, MMRM): -0.8%
Percent change from baseline in body weight, LS mean (SE) (Body weight; week 12, MMRM): −0.9 (1.4) % and -0.9%
Percent change from baseline in body weight, LS mean (SE) (Body weight; week 12, MMRM, listed as dulaglutide): −0.9%
Body weight (percent CFB): ETD versus placebo, LS mean (90% CI) (Body weight; week 12, MMRM): 0.2 ( −2.8, 3.1) %
Change from baseline to week 12 in waist circumference, mean (Waist circumference): -1.4 cm
Change from baseline to week 12 in waist circumference, individual (Waist circumference; single patients): -0.5 cm and -1.5 cm and -2.6 cm and -4.9 cm and 1.5 cm
